# Measured values taken from patent publication US6759385B1, “Methods to treat undesirable immune responses” (Regents of the University of Minnesota, priority 1997, dated 2004).
# “Also recorded” adds a separate entry of the source.
# Experiments:
# anti-FVIII CD4+ cells = assay: CD4+ epitope repertoire to FVIII in hemophilia A mice; type: cell-based, mouse; conditions: mice immunized s.c. with FVIII in Freund adjuvant
# Description: CD4^+ epitope repertoire to FVIII in hemophilia A mice. Mice were immunized with 1 microgram of purified recombinant human FVIII emulsified in Freund adjuvant, and injected subcutaneously three times. The first injection utilized complete Freund adjuvant. This procedure, as opposed to i.v. injections of soluble FVIII, was selected to ensure a strong immunization to FVIII and to reveal the broadest epitope repertoire recognized by anti-FVIII CD4^+ cells.
# FIG. 48 summarizes the results obtained regarding the anti-FVIII CD4^+ repertoire in the mice thus immunized. The individual peptides are indicated with codes that include two numbers, corresponding to the position of the first and last peptide residue on the sequence of the FVIII precursor. The responses to the individual peptides are organized in panels corresponding to the different domains, as indicated.
# mice with EMG weakness = assay: Verification of myasthenic weakness with cholinesterase inhibitor in TAChR-immunized mice; type: in vivo, mouse; conditions: i.p.
# Method: To verify the myasthenic nature of the weakness observed, mice with significant weakness were injected i.p. with the cholinesterase inhibitor edrophonium chloride (Reversol, Organon Inc., West Orange, N.J.). […] The test was performed blindly, i.e., without knowledge of the treatment that the mouse had received.
# Evaluation of Clinical Symptoms of EMG. The symptoms of EMG were quantified using a forced exercise by the inverted hang technique, sensitized by a minute amount of pancuronium bromide (0.03 mg/kg intraperitoneum), given just before the test (Karachunski et al., 1995). The mice hang from a grid, and the time it took for the mouse to release its hold and fall three times is measured (“holding time”). […] This test is parametric, and gives a quantitative assessment of the severity of the mouse weakness. […]
# Evaluation of the symptoms of EMG The EMG symptoms were quantified using a forced exercise test sensitized by i.p. injection of a minute amount of pancuronium bromide (0.03 mg/kg) just before the test (Karachunski et al., 1995). The mouse hangs from a grid suspended above a soft padding, and the time it takes the mouse to fall three times (‘holding time’) was measured. The test is parametric, and gives a quantitative assessment of the mouse weakness. […]
# [1] = system: SCID mice engrafted with BL; assay: Verification of myasthenic weakness with cholinesterase inhibitor in SCID mice engrafted with BL from MG patients; type: in vivo, mouse
# Method: Assay of myasthenic symptoms. The myasthenic symptoms were quantified using a forced exercise test sensitized by administration of a minute amount of pancuronium bromide (0.03 mg/kg intraperitoneum) just before the test. The small amount of pancuronium inactivates a fraction of the mouse muscle AChR. […] The mice hang from a grid suspended above a soft padding, and the time it took the mouse to fall three times (“holding time”) was measured. The test is parametric and gives a quantitative assessment of the mouse weakness. The mice were tested without knowledge of the type of cells engrafted.
# The myasthenic nature of the weakness was verified by injecting intraperitoneum edrophonium chloride (Reversol; Organon Inc., West Orange, N.J.). […] The concentrations of human IgG and IgM in the mouse sera was measured by ELISA. Microtiter plates (Nunc, Roskilde, Denmark) were coated with goat anti-human IgG or IgM Ab (pierce, Rockford, Ill.) in 20 mM sodium carbonate buffer, pH 9.5 (coating buffer), and blocked any uncoated sites with 3% bovine serum albumin (BSA) in coating buffer. Mouse sera diluted serially in PBS was added, and incubated at 4° C. overnight. After four washings with PBS containing 1% Triton X-100, peroxidase conjugated anti-human IgG and IgM Ab (Sigma, St. Louis, Mo.) was added. […] The optical density of the plates was read at 490 nm in an ELISA reader. […]
# [2] = system: CD8+ depleted spleen cells; assay: Lymphocyte proliferation assay, CD8+ depleted spleen cells of IL-4 KO mice; type: cell-based, mouse; conditions: for recognition of individual peptide by cells from sham-treated mice: IL-4 KO mice immunized with TAChR, 10 μg/ml peptide
# Method: Lymphocyte Proliferation Assay. Two weeks after the last immunization, spleen cells (Bellone et al., 1991) were obtained from three identically treated IL-4 KO mice. The cells were pooled and depleted them in CD8^+ cells using paramagnetic beads and rat anti-mouse CD8^+ antibody (Pharmingen, San Diego, Calif.). The cells were suspended in RPMI-1640 (Gibco, Grand Island, N.Y.) supplemented with 10% heat inactivated fetal calf serum (Gibco), 50 μM 2-mercaptoethanol, 1 mM L-glutamine, 10 mM Hepes, 1 mM sodium pyruvate, 100 U/ml penicillin and 100 μg/ml streptomycin (×10^6 cells/ml). The cells were seeded in triplicate in 96 flat-bottom well plates (200 μl/well). One of the following antigens or stimulants was added: 10 μg/ml phytohemoagglutinine (PHA) (Sigma); 10 μg/ml TAChR; the pools of overlapping peptides spanning the α, β, γ, or δ subunit sequences (5 μg/ml) of each peptide); and 10 μg/ml of the individual a subunit peptides. Controls were triplicate wells cultivated without any antigen, or with or a 20-residue control peptide synthesized by the same method, unrelated to the TAChR sequence (10 μg). After four days the cells were labeled for 16 hours with ^3H-thymidine (1 μCi per well, specific activity 6.7 Ci/mmol, Dupont, Boston, Mass.), and harvested (Titertek, Skatron, Sterling, Va.). The ^3H-thymidine incorporation was measured by liquid scintillation.
# EMG = conditions: s.c. or i.p. 300 μg in IFA, 7 days before or 7-18 days after first TAChR immunization; cited from earlier work
# [3] = system: anti-TAChR and anti-peptide IgG subclasses; assay: ELISA of anti-TAChR and anti-peptide IgG subclasses (Example III); type: in vivo, mouse; conditions: IL-4 KO mice, nasal α epitope pool
# Method: Assay of Anti-TAChR and Anti-peptide IgG Subclasses. The relative concentration of IgG subclasses of anti-TAChR and anti-peptide antibodies in the sera of peptide- and sham-treated mice was measured by ELISA after immunization with TAChR. Pooled sera from three-four mice that had received identical treatments was used. The sera used in this assay was obtained at the end of the observation period (10 weeks after beginning of the anti-TAChR immunization).
# Ninety-six well plates (Nunc, Karstrup, Denmark) were washed extensively and incubated as follows: 4 hours with a 10 μg/ml solution of TAChR or of individual peptides Tα150-169, Tα181-200 and Tα360-378 in 0.1 M Na phosphate buffer, pH 9.5 (two wells for each antigen), 1 hr with PBS plus 3% bovine serum albumin (BSA), 2 hours with mouse serum (serial dilutions from 1:100 to 1:40,000 in PBS plus 3% BSA), 1 hr with a dilution 1:1000 in PBS plus 3% BSA of goat antibody specific for the total IgG, or IgGl, or IgG2a, or IgG2b or IgG3 (Mouse Monoclonal Isotyping Kit, Sigma, St. Louis, Mo.), and 30 minutes with a 1:3000 dilution of peroxidase-conjugate rabbit anti-goat IgG (Sigma) in PBS plus 3% BSA. The plates were washed, and developed them for 20-60 minutes with ABTS peroxidase substrate system (Kirkegaard & Perry Laboratories Inc., Gaithersburg, Md.). […] The OD was read at 405 nanometers. […]
# spleen CD4+ T-cells = assay: Lymphocyte proliferation assay, spleen CD4+ T-cells (Example IV); type: cell-based, mouse; conditions: TAChR-immunized B6 mice, 5 or 10 μg/ml
# Method: Lymphocyte proliferation assay. Five to seven days after the last TAChR immunization, CD4^+ T-cells (Bellone et al., 1991a) were purified from the pooled spleens of three to four mice that had received identical treatments. Irradiated (3000 rad) spleen cells from non-immunized mice were diluted as needed in RPMI-1640 (Gibco, Grand Island, N.Y.) supplemented with 10% heat inactivated fetal calf serum (Gibco), 50 μM 2-mercapto-ethanol, 1 mM L-glutamine, 10 mM HEPES, 1 mM sodium pyruvate, 100 U/ml penicillin and 100 μg/ml streptomycin (culture medium) and used as APC. The spleen CD4^+ T-cells (1×10^6/ml in culture medium, 100×1/well) were seeded in triplicate in 96 flat-bottom well plates containing 100×1 of 5×10^6/ml APC. One of the following Ag was added: 10 μg/ml PHA (Sigma); 5 or 10 μg/ml TAChR; 5 or 10 μg/ml of the individual epitope peptides. The concentrations of TAChR and epitope peptides are in the saturating range of the dose dependence curve (Bellone et al., 1991a), and yielded consistent results. Controls were triplicate wells containing CD4^+ cells and APC without any Ag, or with the control peptide (10 μg/ml). After 4 days the cells were labeled for 16 hours with ^3H-thymidine (1 μCi per well, specific activity 6.7 Ci/mmol, Dupont, Boston, Mass.) and harvested (Titertek, Skatron, Sterling, Va.). The ^3H-thymidine incorporation was measured by liquid scintillation, and represented the results as stimulation indexes (S.I.: the ratio between the cpm obtained in the presence of a given stimulus, and the average cpm obtained for non-stimulated control cultures).
compound,measurement,setting,value
"1-20: synthetic peptide, residues 1-20 of the FVIII precursor (MQIELSTCFFLCLLRFCFSA; UniProt P00451 1-20, looked up, fragment)",recognition of individual FVIII peptides by CD4+ cells,anti-FVIII CD4+ cells,recognized especially strongly
"1671-1690: synthetic peptide, residues 1671-1690 of the FVIII precursor (RTTLQSDQEEIDYDDTISVE; UniProt P00451 1671-1690, looked up, fragment)",recognition of individual FVIII peptides by CD4+ cells,anti-FVIII CD4+ cells,recognized especially strongly
"CC[N+](C)(C)c1cccc(O)c1 [Reversol, edrophonium chloride]",effect on strength of mice with weakness,mice with EMG weakness,immediately improved the strength; also recorded: immediately increased the strength
same,effect on muscle strength of mice with normal holding time,[1]; SCID mice,did not increase the muscle strength
same,effect on strength of affected mice,"[1]; intraperitoneum, SCID mice engrafted with BL from MG patients",immediately improved the strength; also recorded: improvement of the muscle strength
"peptide Tα146-162: overlapping synthetic TAChR α subunit peptide that overlaps Tα150-169 (LGIWTYDGTKVSISPES; UniProt P02710 170-186, looked up, fragment)",recognition of individual peptide by cells from peptide-treated mice,[2]; IL-4 KO mice,strongly
same,recognition of individual peptide by cells from sham-treated mice,[2],recognized strongly
same,effect on EMG,EMG,prevented EMG
"peptide Tα360-378: synthetic peptide corresponding to residues 360-378 of the TAChR α subunit (VIFQTPLIKNPDVKSAIEG; UniProt P02710 384-402, looked up, fragment)",anti-peptide IgG2a,[3],moderate synthesis of IgG2a
same,recognition of individual peptide by cells from sham-treated mice,[2],recognized strongly
same,response of CD4+ cells from sham-tolerized mice to the peptide,spleen CD4+ T-cells,three of the five
